{"source": "patent US20220008430A1", "about": "“METHODS OF TREATING SUBJECTS HAVING PLATELET DYSFUNCTION WITH IV MELOXICAM” (priority 2018, published 2022)", "key": {"COX-2 / COX-1": {"tested_on": "COX-2 / COX-1", "conditions": "ratio of IC80 of COX-2 to IC80 of COX-1; Warner 1999; cited from earlier work"}, "pain [1]": {"tested_on": "pain", "conditions": "intravenous; Prescribing Information; cited from earlier work"}, "platelet function [2]": {"tested_on": "platelet function", "experiment": "PFA-100 closure time, ex vivo whole blood, CADP reagent cartridge", "assay_type": "cell-based, human", "protocol": "(§1) The PFA-100 device determines closure time by simulating platelet adhesion and aggregation following vascular injury.\n(§2) Study subjects (n=13) had approximately 20 mL of whole blood collected in tubes containing 3.2% (0.105 M) buffered sodium citrate (1 part anticoagulant to 9 parts blood).\n(§3) Assessment of platelet function: Platelet function was evaluated using the PFA-100 Platelet Function Analyzer (Siemens Healthcare Diagnostics, Deerfield, Ill.). […] Use of this device to measure the effect of drugs on platelet adhesion is well documented. The PFA-100 device determines a sample closure time by simulating the platelet adhesion and aggregation that occurs following vascular injury. Analysis was performed using both collagen with epinephrine (CEPI) and collagen with adenosine diphosphate (CADP) reagent cartridges. […] Whole blood aliquots were treated according to the test condition and incubated for approximately 10 minutes prior to analysis in the PFA-100. All blood samples were analyzed within 2.5 hours of the time of collection. PFA-100 closure time results were reported for each test condition and reagent cartridge. […] Samples outside this range were excluded from the primary analysis.\n(§4) Statistical analysis: Treatment effect on CT was analyzed using an analysis of variance (ANOVA). […] Pairwise comparisons were performed; nominal P-values were reported without controlling for multiplicity. Subgroup analysis by gender was also performed. All analyses were performed separately for each reagent."}, "platelet aggregation": {"tested_on": "platelet aggregation", "conditions": "healthy volunteers; 0.4 mg/kg; previous studies; cited from earlier work"}, "[3]": {"conditions": "cited from earlier work"}, "platelet function [4]": {"tested_on": "platelet function", "experiment": "PFA-100 closure time, ex vivo whole blood, CEPI reagent cartridge", "assay_type": "cell-based, human", "protocol": "as §1, §2, §3, §4"}, "[5]": {"conditions": "cited from earlier work", "remark": "listed apart in the source"}, "pain [6]": {"tested_on": "pain", "experiment": "Time course of analgesic effect", "assay_type": "in vivo, human", "conditions": "meloxicam administration as disclosed (IV)"}, "[7]": {"conditions": "all eligible subjects (12 subjects), 2.5 μg/mL"}, "[8]": {"conditions": "all eligible subjects (12 subjects), 5 μg/mL"}}, "note": "Where two headings read alike, the source gives them in different places."}
{"smiles": "CC(=O)Oc1ccccc1C(=O)O", "note": "[Aspirin, acetylsalicylic acid]", "values": [{"measurement": "COX-2/COX-1 IC80 ratio", "setting": "COX-2 / COX-1", "value": 3.8}]}
{"smiles": "CC(C)Cc1ccc(C(C)C(=O)O)cc1", "note": "(stereo not drawn) [Ibuprofen]", "values": [{"measurement": "COX-2/COX-1 IC80 ratio", "setting": "COX-2 / COX-1", "value": 2.6}]}
{"smiles": "O=C(c1ccccc1)c1ccc2n1CCC2C(=O)O", "note": "(stereo not drawn) [Ketorolac]", "values": [{"measurement": "COX-2/COX-1 IC80 ratio", "setting": "COX-2 / COX-1", "value": 294}, {"measurement": "time to onset of pain relief", "setting": "pain [1]", "value": "up to 30 minutes"}, {"measurement": "LS mean closure time", "setting": "platelet function [2]; [7]", "value": 82.08, "unit": "s"}, {"measurement": "LS mean closure time", "setting": "platelet function [2]; [8]", "value": 86.36, "unit": "s"}, {"measurement": "difference in closure time vs untreated control", "setting": "platelet function [2]; all tested concentrations", "value": "no statistically significant differences"}, {"measurement": "LS mean closure time", "setting": "platelet function [2]; final analysis set (8 subjects), 2.5 μg/mL in whole blood", "value": 79.41, "unit": "s"}, {"measurement": "LS mean closure time", "setting": "platelet function [2]; final analysis set (8 subjects), 2.5 μg/mL in whole blood, listed as ketorolac", "value": "79.41 (5.31) seconds"}, {"measurement": "LS mean closure time", "setting": "platelet function [2]; final analysis set (8 subjects), 5 μg/mL in whole blood", "value": 87.95, "unit": "s"}, {"measurement": "LS mean closure time", "setting": "platelet function [2]; final analysis set (8 subjects), 5 μg/mL in whole blood, listed as ketorolac", "value": "87.95 (5.66) seconds"}, {"measurement": "bleeding time", "setting": "platelet aggregation", "value": "prolonged bleeding times"}, {"measurement": "epinephrine-, adenosine-, and collagen-induced platelet aggregation", "setting": "platelet aggregation", "value": "significant inhibition"}, {"measurement": "peak concentration", "setting": "[3]; following 15-mg IV dose", "value": "~2.5", "unit": "µg/mL"}, {"measurement": "peak concentration", "setting": "[3]; following 30-mg IV dose", "value": "~5", "unit": "µg/mL"}, {"measurement": "LS mean closure time", "setting": "platelet function [4]; [7]", "value": 193.17, "unit": "s"}, {"measurement": "LS mean closure time", "setting": "platelet function [4]; [8]", "value": 191.58, "unit": "s"}, {"measurement": "LS mean closure time", "setting": "platelet function [4]; final analysis set (8 subjects), 2.5 μg/mL", "value": 180.87, "unit": "s"}, {"measurement": "LS mean closure time", "setting": "platelet function [4]; final analysis set (8 subjects), 5 μg/mL", "value": 143.38, "unit": "s"}, {"measurement": "prolongation in closure time vs untreated control", "setting": "platelet function [4]; therapeutic (and for meloxicam IV supratherapeutic) concentrations", "value": "significant prolongations"}]}
{"smiles": "Cc1cnc(NC(=O)C2=C(O)c3ccccc3S(=O)(=O)N2C)s1", "note": "[Meloxicam, 4-hydroxy-2-methyl-N-(5-methyl-2-thiazolyl)-2H-1,2-benzothiazine-3-carboxamide-1,1-dioxide]", "values": [{"measurement": "water solubility", "setting": "[5]", "value": "poor water solubility"}, {"measurement": "therapeutic window", "setting": "pain [6]", "value": "at least 24 hours"}]}
{"smiles": "COc1ccc2cc([C@H](C)C(=O)O)ccc2c1", "note": "[Naproxen]", "values": [{"measurement": "COX-2/COX-1 IC80 ratio", "setting": "COX-2 / COX-1", "value": 3}]}
{"smiles": "CS(=O)(=O)c1ccc(C2=C(c3ccccc3)C(=O)OC2)cc1", "note": "[Rofecoxib]", "values": [{"measurement": "COX-2/COX-1 IC80 ratio", "setting": "COX-2 / COX-1", "value": "<0.05"}]}
